Measured values as given in ChEMBL document CHEMBL5126609, “Design, Synthesis, and Pharmacological Evaluation of Benzimidazolo-thiazoles as Potent CXCR3 Antagonists with Therapeutic Potential in Autoimmune Diseases: Discovery of ACT-672125” (J Med Chem, 2022).
≈ marks a conversion by molar mass, not a printed value.

Experiments:
[1] = Half life in Wistar rat at 0.2 mg/kg, iv; settings: in vivo
[2] = Clearance in Wistar rat at 2 mg/kg, po; settings: in vivo
[3] = in vitro; settings: human
[4] = in vivo; settings: Wistar, rat, po, 2 mg/kg
[5] = Solubility of the compound in FeSSIF; settings: simulated gi fluid
[6] = Unbound fraction in rat plasma by equilibrium based LC-MS/MS analysis
[7] = in vitro; settings: rat
[8] = biological target: T1, C-X-C chemokine receptor type 3 (Homo sapiens, UniProt P49682); assay: Antagonist activity at human recombinant CXCR3 expressed in CHO-K1 cells measured after 10 mins in presence of CXCL10 by FLIPR analysis
T1 sequence (P49682 whole entry): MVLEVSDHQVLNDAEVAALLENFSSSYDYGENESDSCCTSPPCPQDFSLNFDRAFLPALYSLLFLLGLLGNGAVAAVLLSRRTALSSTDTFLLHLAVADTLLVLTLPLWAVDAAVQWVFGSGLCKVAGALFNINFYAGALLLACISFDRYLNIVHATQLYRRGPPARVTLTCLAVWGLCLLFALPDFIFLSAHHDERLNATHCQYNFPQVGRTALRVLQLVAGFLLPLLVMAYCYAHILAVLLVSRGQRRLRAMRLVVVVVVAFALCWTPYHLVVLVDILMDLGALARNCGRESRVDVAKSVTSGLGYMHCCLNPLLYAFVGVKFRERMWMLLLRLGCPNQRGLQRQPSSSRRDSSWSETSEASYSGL

[9] = biological target: T1, C-X-C chemokine receptor type 3; assay: Antagonist activity at human recombinant CXCR3 in human venous blood assessed as receptor internalization measured for 30 mins in presence of CXCL10 by flow cytometric analysis
[10] = in vivo; settings: Wistar, rat, po, 2 mg/kg; remark: listed apart in the source
[11] = in vivo; settings: Wistar, rat, po, 2 mg/kg; remark: listed apart in the source
[12] = biological target: hERG (KCNH2) (Homo sapiens, UniProt Q12809); assay: Inhibition of hERG expressed in CHO cells at 3 uM at -80 mV holding potential assessed as current block incubated for 3 mins by Qpatch clamp method relative to control
hERG (KCNH2), sequence (Q12809 whole entry): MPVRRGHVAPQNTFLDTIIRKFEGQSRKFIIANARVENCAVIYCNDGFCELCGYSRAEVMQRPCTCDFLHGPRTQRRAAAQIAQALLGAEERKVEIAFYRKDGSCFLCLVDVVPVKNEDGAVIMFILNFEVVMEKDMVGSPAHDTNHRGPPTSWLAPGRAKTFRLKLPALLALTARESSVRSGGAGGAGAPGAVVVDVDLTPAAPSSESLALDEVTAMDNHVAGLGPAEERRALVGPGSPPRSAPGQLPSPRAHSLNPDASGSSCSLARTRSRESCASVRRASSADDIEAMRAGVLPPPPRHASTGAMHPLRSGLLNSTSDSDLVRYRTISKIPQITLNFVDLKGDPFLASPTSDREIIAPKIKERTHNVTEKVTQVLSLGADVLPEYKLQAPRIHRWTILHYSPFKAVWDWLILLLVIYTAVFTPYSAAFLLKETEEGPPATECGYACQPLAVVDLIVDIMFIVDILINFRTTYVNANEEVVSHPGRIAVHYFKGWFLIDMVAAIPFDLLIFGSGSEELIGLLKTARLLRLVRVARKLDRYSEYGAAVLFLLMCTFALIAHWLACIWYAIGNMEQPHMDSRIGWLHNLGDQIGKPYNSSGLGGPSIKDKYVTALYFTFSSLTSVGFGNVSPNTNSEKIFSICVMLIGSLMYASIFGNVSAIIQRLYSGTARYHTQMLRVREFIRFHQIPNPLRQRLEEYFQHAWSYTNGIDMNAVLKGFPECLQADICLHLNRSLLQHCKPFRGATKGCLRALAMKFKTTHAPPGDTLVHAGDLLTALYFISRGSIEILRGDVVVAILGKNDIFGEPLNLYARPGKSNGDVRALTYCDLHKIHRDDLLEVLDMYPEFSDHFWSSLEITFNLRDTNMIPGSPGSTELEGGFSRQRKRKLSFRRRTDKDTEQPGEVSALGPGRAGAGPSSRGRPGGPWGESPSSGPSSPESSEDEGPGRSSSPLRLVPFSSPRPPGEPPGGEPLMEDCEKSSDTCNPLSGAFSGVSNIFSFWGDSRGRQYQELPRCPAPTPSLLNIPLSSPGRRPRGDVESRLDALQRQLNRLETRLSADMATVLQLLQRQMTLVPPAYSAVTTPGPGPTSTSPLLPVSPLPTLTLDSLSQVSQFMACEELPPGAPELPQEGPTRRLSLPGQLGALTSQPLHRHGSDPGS

[13] = Unbound fraction in human plasma by equilibrium based LC-MS/MS analysis
[14] = biological target: Voltage-gated inwardly rectifying potassium channel KCNH2 (Homo sapiens, UniProt Q12809); assay: Inhibition of hERG by Qpatch-clamp method
Voltage-gated inwardly rectifying potassium channel KCNH2, sequence (Q12809 whole entry): as above

[15] = Clearance in Balb/c mouse at 10 mg/kg, po; settings: in vivo
[16] = Lipophilicity, log D of the compound at pH 7.4; settings: buffer
[17] = Half life in Balb/c mouse at 1 mg/kg, iv; settings: in vivo
[18] = Unbound fraction in mouse plasma by equilibrium based LC-MS/MS analysis
[19] = Solubility of the compound in FaSSIF; settings: simulated gi fluid
[20] = in vitro; settings: mouse
[21] = in vivo; settings: Balb/c, mouse, po, 10 mg/kg
[22] = Drug concentration in LPS-induced C57BL/6 mouse plasma at 30 mg/kg, po bid; assay type: ADME, organism-based; settings: in vivo
[23] = in vivo; settings: Balb/c, mouse, po, 10 mg/kg; remark: listed apart in the source
[24] = Volume of distribution in dog; assay type: ADME, Canis lupus familiaris; settings: in vivo
[25] = Free maximum concentration of drug in cynomolgus monkey at 300 mg/kg/day measured on day 7; assay type: ADME, organism-based, Macaca fascicularis; settings: in vivo
[26] = Oral bioavailability in rat; assay type: ADME, organism-based; settings: in vivo
[27] = Clearance in dog relative to liver blood flow; assay type: ADME, Canis lupus familiaris; settings: in vivo
[28] = Drug concentration in LPS-induced C57BL/6 mouse plasma at 100 mg/kg, po bid; assay type: ADME, organism-based; settings: in vivo
[29] = Unbound fraction in human liver; assay type: ADME, tissue-based
[30] = Volume of distribution in rat; assay type: ADME; settings: in vivo
[31] = Toxicity in rat plasma assessed as increase in indirect bilirubin level at 300 mg/kg/day measured for 2 weeks; assay type: organism-based; settings: in vivo, 336 h
[32] = Drug concentration in LPS-induced C57BL/6 mouse plasma at 200 mg/kg, po bid; assay type: ADME, organism-based; settings: in vivo
[33] = Cmax in rat plasma at 300 mg/kg/day measured on day 14; assay type: ADME, organism-based; parameters: dose 300 mg/kg/day
[34] = Toxicity in cynomolgus monkey assessed as increase in total bilirubin level at 300 mg/kg/day measured for 7 days; assay type: organism-based, Macaca fascicularis; settings: in vivo, time 7 day
[35] = Toxicity in cynomolgus monkey assessed as increase in indirect bilirubin level at 300 mg/kg/day measured for 7 days; assay type: organism-based, Macaca fascicularis; settings: in vivo, time 7 day
[36] = test system: Hepatocyte; assay: Cytotoxicity in human hepatocyte measured up to 100 uM; assay type: toxicity, cell-based; settings: hepatocytes
[37] = Volume of distribution at steady state in Wistar rat at 2 mg/kg, po; settings: in vivo
[38] = Toxicity in rat plasma assessed as increase in direct bilirubin level at 300 mg/kg/day measured for 2 weeks; assay type: organism-based; settings: in vivo, 336 h
[39] = Oral bioavailability in dog; assay type: ADME, organism-based, Canis lupus familiaris; settings: in vivo
[40] = Unbound fraction in dog liver; assay type: ADME, tissue-based, Canis lupus familiaris
[41] = Mutagenicity in Salmonella typhimurium by Ames test; assay type: toxicity; settings: salmonella enterica subsp. enterica serovar typhimurium
[42] = Unbound fraction in rat liver; assay type: ADME, tissue-based
[43] = Clearance in rat relative to liver blood flow; assay type: ADME; settings: in vivo
[44] = Toxicity in cynomolgus monkey assessed as increase in direct bilirubin level at 300 mg/kg/day measured for 7 days; assay type: organism-based, Macaca fascicularis; settings: in vivo, time 7 day
[45] = biological target: 5-hydroxytryptamine receptor 2A (Homo sapiens, UniProt P28223); assay: Antagonist activity at 5-HT2A receptor (unknown origin)
5-hydroxytryptamine receptor 2A, sequence (P28223 whole entry): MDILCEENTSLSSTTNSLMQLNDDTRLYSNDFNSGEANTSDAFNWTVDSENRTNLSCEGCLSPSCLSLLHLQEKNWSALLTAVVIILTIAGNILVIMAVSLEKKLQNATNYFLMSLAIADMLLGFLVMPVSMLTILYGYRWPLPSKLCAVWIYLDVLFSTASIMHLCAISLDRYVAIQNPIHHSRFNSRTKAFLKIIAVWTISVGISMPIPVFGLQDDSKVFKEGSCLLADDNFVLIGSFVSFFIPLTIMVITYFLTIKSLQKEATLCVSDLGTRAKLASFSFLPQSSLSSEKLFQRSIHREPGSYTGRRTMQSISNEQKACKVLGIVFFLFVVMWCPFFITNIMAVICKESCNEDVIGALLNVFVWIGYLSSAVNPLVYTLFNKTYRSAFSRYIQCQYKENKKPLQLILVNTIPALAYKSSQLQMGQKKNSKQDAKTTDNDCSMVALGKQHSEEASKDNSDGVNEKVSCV

[46] = Toxicity in […] assessed as histopathological changes in liver at 300 mg/kg/day measured for 2 weeks; assay type: organism-based; settings: in vivo, 336 h
[47] = in vivo; settings: Balb/c, mouse, po, 10 mg/kg; remark: listed apart in the source
[48] = Half life in Wistar rat at 0.5 mg/kg, iv; settings: in vivo
[49] = biological target: cGMP-specific 3',5'-cyclic phosphodiesterase (Homo sapiens, UniProt O76074); assay: Antagonist activity at PDE5 (unknown origin)
[50] = Toxicity in rat plasma assessed as increase in total bilirubin level at 300 mg/kg/day measured for 2 weeks; assay type: organism-based; settings: in vivo, 336 h
[51] = Cardiotoxicity in guinea pig assessed as QTc prolongation at 10 mg/kg, iv measured for 20 mins; assay type: toxicity, organism-based, Cavia porcellus; settings: in vivo

SMILES: COc1cc2nc(-c3nc(C(F)(F)F)sc3N3CCN(C(=O)Cn4cnc5cccnc54)[C@H](C)C3)[nH]c2cc1OC
- half-life [1]: 30 min
- CL/F [2]: 49 mL/min/kg
- microsomal CLint at 0.25 h, 1 µM ([3]; microsomes): 30 µL/min/mg
- bioavailability [4]: 29%
- solubility [5]: 731 µg/mL (≈ 1250 µM)
- fraction unbound [6]: 0.042
- microsomal CLint at 0.25 h, 1 µM ([7]; microsomes): 53 µL/min/mg
- IC50 [8]: 3.2 nM
- IC50 [9]: 144 nM
- AUC [10]: 196 ng·h/mL
- Tmax [11]: 30 min
- inhibition at 0.05 h, 3 µM [12]: 20%

SMILES: C[C@@H]1CN(c2sc(C(F)(F)F)nc2-c2nc3ccccc3[nH]2)CCN1C(=O)Cn1cnc2cccnc21
- fraction unbound [13]: 0.023
- IC50 [14]: 1400 nM
- CL/F [15]: 41 mL/min/kg
- logD [16]: 3.9
- half-life [17]: 13.2 min
- microsomal CLint at 0.25 h, 1 µM ([3]; microsomes): 89 µL/min/mg
- fraction unbound [18]: 0.01
- solubility [5]: 214 µg/mL (≈ 406 µM)
- fraction unbound [6]: 0.017
- microsomal CLint at 0.25 h, 1 µM ([7]; microsomes): 104 µL/min/mg
- solubility [19]: 13 µg/mL (≈ 24.7 µM)
- microsomal CLint at 0.25 h, 1 µM ([20]; microsomes): 104 µL/min/mg
- Cmax [21]: 27900 ng/mL
- inhibition at 0.05 h, 3 µM [12]: 70%

SMILES: Cc1nc(C)n(CC(=O)N2CCN(c3sc(C(F)(F)F)nc3-c3nc4ccc(-c5noc(C)n5)cc4[nH]3)C[C@H]2C)n1
- Cp [22]: 30 ng/mL
- Tmax [23]: 15 min
- Vd [24]: 2.2 L/kg
- fCmax [25]: 1.4 µM
- bioavailability [26]: 48%
- CLH [27]: 11%
- Cp [28]: 250 ng/mL
- fraction unbound [29]: 0.038
- Vd [30]: 1.1 L/kg
- Activity [31]: Toxic
- Cp [32]: 14630 ng/mL
- CL/F [2]: 14 mL/min/kg
- microsomal CLint at 0.25 h, 1 µM ([3]; liver microsomes): < 10 µL/min/mg
- fraction unbound [18]: 0.024
- Cmax [33]: 3.5 µM
- bioavailability [4]: 0.5%
- Activity [34]: Toxic
- Activity [35]: Toxic
- Activity [36]: Non-Toxic
- Vdss [37]: 1 L/kg
- fraction unbound [6]: 0.029
- Activity [38]: Toxic
- microsomal CLint at 0.25 h, 1 µM ([7]; liver microsomes): 47 µL/min/mg
- microsomal CLint at 0.25 h, 1 µM ([20]; liver microsomes): 21 µL/min/mg
- bioavailability [39]: 57%
- fraction unbound [40]: 0.106
- Activity [41]: Non-Toxic
- fraction unbound [42]: 0.029
- CLH [43]: 10%
- IC50 [8]: 2.5 nM
- Activity [44]: Toxic
- IC50 [45]: 16000 nM
- IC50 [9]: 239 nM
- Activity [46]: Non-Toxic
- AUC [47]: 6600 ng·h/mL
- Cmax [21]: 3140 ng/mL
- half-life [48]: 72 min
- AUC [10]: 1160 ng·h/mL
- IC50 [49]: 8700 nM
- Tmax [11]: 15 min
- Activity [50]: Toxic
- Activity [51]: Non-Toxic
